Measured values published in US12655126B2, “Imidazole-pyrazole derivatives as antibacterials” (Hoffmann-La Roche Inc., priority 2020, dated 2026).
Where a name gives a salt, the structure may show the parent alone. Read-outs that look alike come from different tables or passages of the source.

Tested on: Acinetobacter baumannii ATCC17961
Assay: Antimicrobial susceptibility testing: 90% growth inhibitory concentration (IC90) determination
Type: cell-based
Conditions: read-out: ATCC 17961 IC90
Procedure: Antimicrobial Susceptibility Testing:
90% Growth Inhibitory Concentration (IC90) Determination
The in vitro antimicrobial activity of the compounds was determined according to the following procedure:
The assay used a 10-points Iso-Sensitest broth medium to measure quantitatively the in vitro activity of the compounds against Acinetobacter baumannii ATCC17961.
Stock compounds in DMSO were serially twofold diluted (e.g. range from 50 to 0.097 μM final concentration) in 384 wells microtiter plates and inoculated with 49 μl the bacterial suspension in Iso-Sensitest medium to have a final cell concentration of ˜5×10^(5) CFU/ml in a final volume/well of 50 ul/well. Microtiter plates were incubated at 35±2° C.
Bacterial cell growth was determined with the measurement of optical density at λ=600 nm each minutes over a time course of 16 h. Growth inhibition was calculated during the logarithmic growth of the bacterial cells with determination of the concentration inhibiting 50% (IC50) and 90% (IC90) of the growth.
Table 1 provides the 90% growth inhibitory concentrations (IC90) in micromoles per liter of the compounds of present invention obtained against the strain Acinetobacter baumannii ATCC17961.

[1] = Acinetobacter baumannii ATCC17961, Iso-Sensitest broth, growth by OD 600 nm over 16 h, 90% growth inhibitory concentration

SMILES	IC90 [1] [nM]	IC90 (Acinetobacter baumannii, ATCC17961, 16 h) [nM]
Cn1c(-c2cn(-c3ccc(N)cn3)nc2C(F)(F)F)cnc1C(=O)Nc1ccc(C(=O)NCC2CCN(C(=O)C3CC[N+](C)(C)CC3)CC2)c(Cl)c1 [Example D12, 5-[1-(5-amino-2-pyridyl)-3-(trifluoromethyl)pyrazol-4-yl]-N-[3-chloro-4-[[1-(1,1-dimethylpiperidin-1-ium-4-carbonyl)-4-piperidyl]methylcarbamoyl]phenyl]-1-methyl-imidazole-2-carboxamide; formate]	1300	
Cn1c(-c2cn(-c3ccc(N)cn3)nc2C(F)(F)F)cnc1C(=O)Nc1ccc(C(=O)N2CCN(C(=O)[C@@H]3COCC[N+]3(C)C)CC2)c(Cl)c1 [Example D13, 5-[1-(5-amino-2-pyridyl)-3-(trifluoromethyl)pyrazol-4-yl]-N-[3-chloro-4-[4-[(3S)-4,4-dimethylmorpholin-4-ium-3-carbonyl]piperazine-1-carbonyl]phenyl]-1-methyl-imidazole-2-carboxamide; formate]	420	
Cn1c(-c2cn(-c3ccc(N)cn3)nc2C(F)(F)F)cnc1C(=O)Nc1ccc(C(=O)N2CCN(C(=O)[C@@H]3[C@@H](Oc4ccc(N)cn4)CC[N+]3(C)C)CC2)c(Cl)c1 [Example D14, N-[4-[4-[(2S,3S)-3-[(5-amino-2-pyridyl)oxy]-1,1-dimethyl-pyrrolidin-1-ium-2-carbonyl]piperazine-1-carbonyl]-3-chloro-phenyl]-5-[1-(5-amino-2-pyridyl)-3-(trifluoromethyl)pyrazol-4-yl]-1-methyl-imidazole-2-carboxamide; formate]	550	
Cn1c(-c2cn(-c3ccc(N)cn3)nc2C(F)(F)F)cnc1C(=O)Nc1ccc(C(=O)N2CCN(C(=O)[C@@H]3CC(O)CC[N+]3(C)C)CC2)c(Cl)c1 (stereo partly drawn) [Example D15, 5-[1-(5-Amino-2-pyridyl)-3-(trifluoromethyl)pyrazol-4-yl]-N-[3-chloro-4-[4-[(2S)-4-hydroxy-1,1-dimethyl-piperidin-1-ium-2-carbonyl]piperazine-1-carbonyl]phenyl]-1-methyl-imidazole-2-carboxamide;formate]	550	
Cn1c(-c2cn(-c3cnc(N)cn3)nc2C(F)(F)F)cnc1C(=O)Nc1ccc(C(=O)N2CCN(C(=O)C3CC[N+](C)(C)CC3)CC2)c(Cl)c1 [Example D16, 5-[1-(5-aminopyrazin-2-yl)-3-(trifluoromethyl)pyrazol-4-yl]-N-[3-chloro-4-[4-(1,1-dimethylpiperidin-1-ium-4-carbonyl)piperazine-1-carbonyl]phenyl]-1-methyl-imidazole-2-carboxamide]	320	
Cn1c(-c2cn(-c3ccc(N)cn3)nc2C(F)(F)F)cnc1C(=O)Nc1ccc(C(=O)N[C@H]2[C@@H]3CN(C(=O)[C@@H]4C[C@@H](O)C[N+]4(C)C)C[C@@H]32)c(Cl)c1 [Example D17, 5-[1-(5-amino-2-pyridyl)-3-(trifluoromethyl)pyrazol-4-yl]-N-[3-chloro-4-[[(exo)-3-[(2S,4R)-4-hydroxy-1,1-dimethyl-pyrrolidin-1-ium-2-carbonyl]-3-azabicyclo[3.1.0]hexan-6-yl]carbamoyl]phenyl]-1-methyl-imidazole-2-carboxamide]	300	
CNc1ccc(-n2cc(-c3cnc(C(=O)Nc4ccc(C(=O)N5CCN(C(=O)C6CC[N+](C)(C)CC6)CC5)c(Cl)c4)n3C)c(C(F)(F)F)n2)nc1 [Example E1, N-[3-Chloro-4-[4-(1,1-dimethylpiperidin-1-ium-4-carbonyl)piperazine-1-carbonyl]phenyl]-1-methyl-5-[1-[5-(methylamino)-2-pyridyl]-3-(trifluoromethyl)pyrazol-4-yl]imidazole-2-carboxamide; formate]		100
COCCNc1ccc(-n2cc(-c3cnc(C(=O)Nc4ccc(C(=O)N5CCN(C(=O)C6CC[N+](C)(C)CC6)CC5)c(Cl)c4)n3C)c(C(F)(F)F)n2)nc1 [Example E2, N-[3-chloro-4-[4-(1,1-dimethylpiperidin-1-ium-4-carbonyl)piperazine-1-carbonyl]phenyl]-5-[1-[5-(2-methoxyethylamino)-2-pyridyl]-3-(trifluoromethyl)pyrazol-4-yl]-1-methyl-imidazole-2-carboxamide; formate]	300	
CCNc1ccc(-n2cc(-c3cnc(C(=O)Nc4ccc(C(=O)N5CCN(C(=O)C6CC[N+](C)(C)CC6)CC5)c(Cl)c4)n3C)c(C(F)(F)F)n2)nc1 [Example E3, N-[3-chloro-4-[4-(1,1-dimethylpiperidin-1-ium-4-carbonyl)piperazine-1-carbonyl]phenyl]-5-[1-[5-(ethylamino)-2-pyridyl]-3-(trifluoromethyl)pyrazol-4-yl]-1-methyl-imidazole-2-carboxamide; formate]	390	
CNc1ccc(-n2cc(-c3cnc(C(=O)Nc4ccc(C(=O)N5CCN(C(=O)C[N+]6(C)CCC(O)C6)CC5)c(Cl)c4)n3C)c(C(F)(F)F)n2)nc1 (stereo not drawn) [Example E5, N-[3-chloro-4-[4-[2-(3-hydroxy-1-methyl-pyrrolidin-1-ium-1-yl)acetyl]piperazine-1-carbonyl]phenyl]-1-methyl-5-[1-[5-(methylamino)-2-pyridyl]-3-(trifluoromethyl)pyrazol-4-yl]imidazole-2-carboxamide; formate]	220	
CNc1ccc(-n2cc(-c3cnc(C(=O)Nc4ccc(C(=O)N5CCN(C(=O)[C@@H]6[C@@H](O)CC[N+]6(C)C)CC5)c(Cl)c4)n3C)c(C(F)(F)F)n2)nc1 [Example E6, N-[3-chloro-4-[4-[(2S,3S)-3-hydroxy-1,1-dimethyl-pyrrolidin-1-ium-2-carbonyl]piperazine-1-carbonyl]phenyl]-1-methyl-5-[1-[5-(methylamino)-2-pyridyl]-3-(trifluoromethyl)pyrazol-4-yl]imidazole-2-carboxamide; formate]	370	
CNc1ccc(-n2cc(-c3cnc(C(=O)Nc4ccc(C(=O)N5CCN(C(=O)C6CC[N+](C)(C)CC6)CC5)c(C)c4)n3C)c(C(F)(F)F)n2)nc1 [Example E7, N-[4-[4-(1,1-dimethylpiperidin-1-ium-4-carbonyl)piperazine-1-carbonyl]-3-methyl-phenyl]-1-methyl-5-[1-[5-(methylamino)-2-pyridyl]-3-(trifluoromethyl)pyrazol-4-yl]imidazole-2-carboxamide; formate]	330	
CNc1ccc(-n2cc(-c3cnc(C(=O)Nc4ccc(C(=O)N5CCN(C(=O)[C@@H]6CC[N+](C)(C)C[C@H]6O)CC5)c(Cl)c4)n3C)c(C(F)(F)F)n2)nc1 [Example E8, N-[3-chloro-4-[4-[(3S,4R)-3-hydroxy-1,1-dimethyl-piperidin-1-ium-4-carbonyl]piperazine-1-carbonyl]phenyl]-1-methyl-5-[1-[5-(methylamino)-2-pyridyl]-3-(trifluoromethyl)pyrazol-4-yl]imidazole-2-carboxamide; formate]	220	
Cn1c(-c2cn(-c3ccc(CO)cn3)nc2C(F)(F)F)cnc1C(=O)Nc1ccc(C(=O)N2CCN(C(=O)C3CC[N+](C)(C)CC3)CC2)c(Cl)c1 [Example F1, N-[3-Chloro-4-[4-(1,1-dimethylpiperidin-1-ium-4-carbonyl)piperazine-1-carbonyl]phenyl]-5-[1-[5-(hydroxymethyl)-2-pyridyl]-3-(trifluoromethyl)pyrazol-4-yl]-1-methyl-imidazole-2-carboxamide; formate]	390	
COCCOc1ccc(-n2cc(-c3cnc(C(=O)Nc4ccc(C(=O)N5CCN(C(=O)C6CC[N+](C)(C)CC6)CC5)c(Cl)c4)n3C)c(C(F)(F)F)n2)nc1 [Example G1, N-[3-Chloro-4-[4-(1,1-dimethylpiperidin-1-ium-4-carbonyl)piperazine-1-carbonyl]phenyl]-5-[1-[5-(2-methoxyethoxy)-2-pyridyl]-3-(trifluoromethyl)pyrazol-4-yl]-1-methyl-imidazole-2-carboxamide; formate]	350	
Cn1c(-c2cn(-c3ccc(N)cn3)nc2C(F)(F)F)cnc1C(=O)Nc1ccc(C(=O)N2CCC(C(=O)N3CC[N+](C)(C)CC3)CC2)c(Cl)c1 [Example H1, 5-[1-(5-Amino-2-pyridyl)-3-(trifluoromethyl)pyrazol-4-yl]-N-[3-chloro-4-[4-(4,4-dimethylpiperazin-4-ium-1-carbonyl)piperidine-1-carbonyl]phenyl]-1-methyl-imidazole-2-carboxamide; formate]	610	
Cn1c(-c2cn(-c3ccc(N)cn3)nc2C#N)cnc1C(=O)Nc1ccc(C(=O)N2CCN(C(=O)C3CC[N+](C)(C)CC3)CC2)c(Cl)c1 [Example J2, 5-[1-(5-amino-2-pyridyl)-3-cyano-pyrazol-4-yl]-N-[3-chloro-4-[4-(1,1-dimethylpiperidin-1-ium-4-carbonyl)piperazine-1-carbonyl]phenyl]-1-methyl-imidazole-2-carboxamide; 2,2,2-trifluoroacetate]	9830	
Cc1nn(-c2ccc(N)cn2)cc1-c1cnc(C(=O)Nc2ccc(C(=O)N3CCN(C(=O)C4CC[N+](C)(C)CC4)CC3)c(Cl)c2)n1C [Example J3, 5-[1-(5-amino-2-pyridyl)-3-methyl-pyrazol-4-yl]-N-[3-chloro-4-[4-(1,1-dimethylpiperidin-1-ium-4-carbonyl)piperazine-1-carbonyl]phenyl]-1-methyl-imidazole-2-carboxamide; formate]	10000	
